The values below come from US7338932B2, “Methods of modulating functions of polypeptide GalNAc-transferases and of screening test substances to find agents herefor, pharmaceutical compositions comprising such agents and the use of such agents for preparing medicaments” (Glycozym APS, priority 2000, dated 2008).

Test [1] concerns CHOldlD/MUC1F-clone2 cells. In words: MUC1 expression in cell lysates, immunoprecipitation and SDS-PAGE western blot. It counts as cell-based, Chinese Hamster. The following applies: 2 mM. The protocol:
We next analysed the expression of MUC1 produced by CHOldlD/MUC1F-clone2 cells by SDS-PAGE western analysis. […] Cells were further treated with 2 mM GalNAcα-benzyl, GlcNAcα-benzyl or no inhibitor. Cells were washed and lysed at 24 or 48 hours and the lysates subjected to immunoprecipitation with monoclonal antibody HMFG2, which broadly recognize MUC1 glycoforms. Immunoprecipitates were analysed by SDS-PAGE and western blot using HMFG2 antibody to detect MUC1 expression. […] In striking contrast, treatment with GalNAcα-benzyl had significant effect after 48 hours. […] This indicates some heterogeneity in glycosylation.
As shown in Examples 8 and 9, polypeptide GalNAc-transferases contain lectin domains with binding properties for GalNAc-peptides including GalNAc-MUC1 peptides. […] GalNAcβ-benzyl, the β-anomeric configuration of GalNAc-benzyl (there is a β linkage between the N-acetylgalactosamine and the benzyl ring), was custom synthesized by Alberta Research Council (Canada), and its structure was confirmed by mass spectrometry and ^1H-NMR. […] Cells were then treated with 2 mM GalNAcα-benzyl, GalNAcβ-benzyl, or GlcNAcα-benzyl as control (GlcNAcα-benzyl was shown in Example 10 to have no effect). Cells were washed and lysed as described above after 36 hours and the lysates subjected to immunoprecipitation with anti-MUC1 monoclonal antibodies HMFG2 or 5E5. […] FIG. 17 illustrates the same experiments as in FIG. 16 except that the detection antibody is 5E5 and only Tn and STn MUC1 glycoforms are visualised.

Test [2] deals with Helix Pomatia lectin (HPA) (Helix pomatia, UniProt Q2F1K8). In words: Direct binding ELISA, competitive inhibition, Helix Pomatia lectin control. The following applies: read-out: Concentration required for 50% inhibition (IC50), HPA; control plant lectin. The text has this: Glycopeptides were purified by C-18 reverse phase HPLC. Peptides were custom synthesized by Neosystems (Strasbourg). Biotinylated Helix Pomatia lectin (HPA) was from KemEnTec (Denmark). Anti-MUC1 HMFG2 monoclonal antibody was a generous gift from Joyce Taylor-Papadimitriou. Anti-MUC1 SE5 monoclonal antibody was developed by immunizing Balb/c mice with 60-mer MUC1 tandem repeat peptide glycosylated with 5 moles GalNAc per repeat. Monoclonal antibodies to the lectin domains of human GalNAc-T2 and -T4 were developed as previously described^8, 63.
Direct binding ELISA assay was developed as follows: Polystyrene microtiter plates (Maxisorb, Nunc, Denmark) were coated with peptides or enzymatically glycosylated glycopeptides in PBS overnight at 4° C. Plates were washed and blocked with 0.1% Tween20 and 0.2% BSA in PBS for 1 h at room temperature, followed by incubation with biotinylated proteins in PBS with 0.05% Tween20 for 2 h at room temperature. After four washes with PBS, plates were incubated with 1:2,000 dilution streptavidin-HRP (Sigma) in PBS for 30 min at room temperature and washed four times with PBS. Development was performed with 0.5 mg/ml o-phenylenediamine and 0.02% H2O2 at room temperature for 15 min, and reaction stopped by adding 100 μl/well of 0.5 N H2SO4. Competitive inhibition assays were done at end-point titers of GalNAc-transferase proteins with one hour preincubations with inhibitor.
Inhibition experiments were used to further define the binding specificity of GalNAc-T2 and -T4 secreted soluble enzymes as well as lectin domains compared to Helix Pomatia lectin (Table VII).

Test [3] relates to CHOldlD/MUC1F-clone2 cells. The experiment in a line: Cell surface expression of MUC1 by immunocytology. It counts as cell-based, Chinese Hamster. The following applies: 1 mM; cells grown in GalNAc; FIG. 13. The protocol: We therefore investigated the effect of treatment with GalNAcα-benzyl of CHOldlD/MUC1F-clone2 cells grown in the presence of GalNAc. CHOldlD/MUC1F-clone2 cells were seeded in 6 well plates at a density of 0.2×10^6 per well and were grown for 6 hours in Hams F12 medium with serum until approximately 30% subconfluent. […] After 18 hours, the medium was replaced with fresh Optimem containing the sugars and benzyl derivatives as above and grown for 12-48 hours. Initially we analyzed surface expression of MUC1 by immunocytology. Cells were washed once in PBS-CMF (phosphate buffered saline Calcium and Magnesium free) after carefully removing the medium from the wells and subsequently fixed in 2 ml 3% paraformaldehyde at 25° C. for 20 min followed by three washes with PBS-CMF 3 times. Free aldehyde groups were quenched by incubating in 2 mL 50 mM Ammonium Chloride in PBS-CMF for 10 min, followed by three washes with PBS-CMF and three washes with 5 min incubations each with PBS-CMF containing 0.2% Fish Skin Gelatin (Sigma). Immunostaining of cells was performed by incubation with monoclonal antibodies for 40 min at 25° C., followed by three washes with PBS-CMF and three washes of 5 min each with PBS-CMF containing 0.2% Fish Skin Gelatin. […]

Setting [4] is: 48 hours, IP HMFG2, blot HMFG2, grown in GalNAc or Gal and GalNAc.

Molecules are shown by their SMILES. pIC50: −log10 of the molar value. Entries after “also recorded” stand apart in the source; their conditions may differ.

For the compound `CC(=O)N[C@H]1[C@@H](OCc2ccccc2)O[C@H](CO)[C@H](O)[C@@H]1O` [GalNAcα-benzyl], the MUC1 expression result in test [1] (24 hours, IP HMFG2, blot HMFG2) is “no significant effect”; in test [1] (36 hours, blot 5E5, cells grown in GalNAc) it was “strong inhibition”; in test [1] (setting [4]), “significant reduction in MUC1 expression”. Also, the “SDS-PAGE migration of MUC1 (O-glycosylation)” value in test [1] (48 hours, cells grown in Gal and GalNAc, blot HMFG2) is “significant shift in migration”. Besides, the pIC50 in test [2] was 3.30. Moreover, in test [3], the “Cell surface expression of MUC1” value was “strong inhibition”.
Turning to `CC(=O)N[C@H]1[C@@H](OCc2ccccc2)O[C@H](CO)[C@@H](O)[C@@H]1O` [GlcNAcα-benzyl], the MUC1 expression entry in test [1] (setting [4]) is listed as “produced the same glycoforms at similar intensity as cells without treatment; also recorded: no effect”. In addition, the pIC50 in test [2] was 2.70. Moreover, the “Cell surface expression of MUC1” value in test [3] is given as “no inhibition”.
